Results: ChEMBL document CHEMBL4177722, “Small molecule inhibitors of anthrax edema factor” (Bioorg Med Chem Lett, 2018)

Tests used:
[1] = molecular target: T1, Calmodulin-sensitive adenylate cyclase (Bacillus anthracis) (UniProt P40136); assay: Inactivation of Bacillus anthracis edema factor assessed as inactivation rate constant in presence of CaM incubated for 10 to 240 mins by EnzChek pyrophosphate assay
T1 sequence (whole entry): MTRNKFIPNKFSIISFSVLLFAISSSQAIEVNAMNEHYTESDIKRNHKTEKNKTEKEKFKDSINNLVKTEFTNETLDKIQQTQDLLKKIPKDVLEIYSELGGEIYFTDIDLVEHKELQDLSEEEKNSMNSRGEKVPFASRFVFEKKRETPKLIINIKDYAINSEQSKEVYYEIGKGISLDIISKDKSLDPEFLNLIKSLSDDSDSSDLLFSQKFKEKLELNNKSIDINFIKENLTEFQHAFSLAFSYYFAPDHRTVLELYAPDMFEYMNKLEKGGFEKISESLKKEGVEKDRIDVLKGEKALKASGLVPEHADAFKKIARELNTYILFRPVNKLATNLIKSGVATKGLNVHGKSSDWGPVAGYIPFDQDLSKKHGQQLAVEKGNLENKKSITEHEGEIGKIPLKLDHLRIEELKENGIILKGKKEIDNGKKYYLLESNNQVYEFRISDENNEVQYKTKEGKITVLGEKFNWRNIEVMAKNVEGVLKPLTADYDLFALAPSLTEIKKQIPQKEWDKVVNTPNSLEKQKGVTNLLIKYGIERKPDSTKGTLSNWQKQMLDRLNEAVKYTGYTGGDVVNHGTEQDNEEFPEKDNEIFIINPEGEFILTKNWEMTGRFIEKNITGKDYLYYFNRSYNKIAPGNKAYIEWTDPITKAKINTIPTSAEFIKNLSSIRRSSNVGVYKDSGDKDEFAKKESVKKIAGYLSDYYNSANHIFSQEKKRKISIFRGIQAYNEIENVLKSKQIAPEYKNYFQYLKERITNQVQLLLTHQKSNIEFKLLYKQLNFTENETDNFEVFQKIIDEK

[2] = Cytotoxicity against mouse RAW264.7 cells assessed a reduction in cell viability incubated for 24 hrs in presence of 10% FBS by MTT assay; format: cell-based; conditions: RAW264.7 cells
[3] = molecular target: Serine/threonine-protein kinase PAK 1 (Homo sapiens) (UniProt Q13153); assay: Inhibition of human PAK1 at 10 uM by ADP-Glo kinase assay
[4] = molecular target: Casein kinase I isoform alpha (Homo sapiens) (UniProt P48729); assay: Inhibition of human CK1a1 at 10 uM by ADP-Glo kinase assay
[5] = molecular target: T1, Calmodulin-sensitive adenylate cyclase (Bacillus anthracis); assay: Inactivation of Bacillus anthracis edema factor assessed as Kinact/Ki ratio in presence of CaM incubated for 10 to 240 mins by EnzChek pyrophosphate assay relative to FSBA
[6] = molecular target: T2, Calcium/calmodulin-dependent protein kinase type IV (Homo sapiens) (UniProt Q16566); assay: Inhibition of human CAMK4 at 10 uM by ADP-Glo kinase assay
T2 sequence (whole entry): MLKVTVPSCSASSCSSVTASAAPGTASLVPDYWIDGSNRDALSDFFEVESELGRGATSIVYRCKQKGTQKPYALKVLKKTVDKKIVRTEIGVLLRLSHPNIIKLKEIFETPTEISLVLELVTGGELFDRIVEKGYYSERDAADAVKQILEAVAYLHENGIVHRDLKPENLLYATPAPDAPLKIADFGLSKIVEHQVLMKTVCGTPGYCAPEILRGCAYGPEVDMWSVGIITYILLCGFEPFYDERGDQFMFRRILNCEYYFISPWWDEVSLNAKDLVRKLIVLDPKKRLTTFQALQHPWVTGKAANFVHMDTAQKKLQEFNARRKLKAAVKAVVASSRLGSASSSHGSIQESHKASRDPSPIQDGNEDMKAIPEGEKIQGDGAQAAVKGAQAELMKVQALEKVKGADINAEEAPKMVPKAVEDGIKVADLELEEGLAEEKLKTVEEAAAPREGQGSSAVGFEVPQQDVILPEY

[7] = molecular target: Mitogen-activated protein kinase 14 (Homo sapiens) (UniProt Q16539); assay: Inhibition of human p38alpha at 10 uM by ADP-Glo kinase assay
[8] = molecular target: Interleukin-1 receptor-associated kinase 1 (Homo sapiens) (UniProt P51617); assay: Inhibition of human IRAK at 10 uM by ADP-Glo kinase assay
[9] = molecular target: Misshapen-like kinase 1 (Homo sapiens) (UniProt Q8N4C8); assay: Inhibition of human MINK at 10 uM by ADP-Glo kinase assay
[10] = molecular target: T3, Aurora kinase A (Homo sapiens) (UniProt O14965); assay: Inhibition of human Aurora A at 10 uM by ADP-Glo kinase assay
T3 sequence (whole entry): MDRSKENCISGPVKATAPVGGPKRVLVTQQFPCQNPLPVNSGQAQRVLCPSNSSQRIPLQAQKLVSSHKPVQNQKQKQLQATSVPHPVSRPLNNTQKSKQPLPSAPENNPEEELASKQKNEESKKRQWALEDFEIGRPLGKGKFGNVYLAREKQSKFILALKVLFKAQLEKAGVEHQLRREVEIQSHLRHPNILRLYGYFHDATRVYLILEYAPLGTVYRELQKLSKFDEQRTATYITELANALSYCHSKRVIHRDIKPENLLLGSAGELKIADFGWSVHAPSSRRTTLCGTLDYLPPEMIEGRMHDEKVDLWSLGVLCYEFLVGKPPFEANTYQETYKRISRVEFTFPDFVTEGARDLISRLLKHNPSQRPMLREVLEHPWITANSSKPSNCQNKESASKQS

[11] = molecular target: RAC-alpha serine/threonine-protein kinase (Homo sapiens) (UniProt P31749); assay: Inhibition of human AKT1 at 10 uM by ADP-Glo kinase assay
[12] = molecular target: T4, Serine/threonine-protein kinase Chk1 (Homo sapiens) (UniProt O14757); assay: Inhibition of human CHK1 at 10 uM by ADP-Glo kinase assay
T4 sequence (whole entry): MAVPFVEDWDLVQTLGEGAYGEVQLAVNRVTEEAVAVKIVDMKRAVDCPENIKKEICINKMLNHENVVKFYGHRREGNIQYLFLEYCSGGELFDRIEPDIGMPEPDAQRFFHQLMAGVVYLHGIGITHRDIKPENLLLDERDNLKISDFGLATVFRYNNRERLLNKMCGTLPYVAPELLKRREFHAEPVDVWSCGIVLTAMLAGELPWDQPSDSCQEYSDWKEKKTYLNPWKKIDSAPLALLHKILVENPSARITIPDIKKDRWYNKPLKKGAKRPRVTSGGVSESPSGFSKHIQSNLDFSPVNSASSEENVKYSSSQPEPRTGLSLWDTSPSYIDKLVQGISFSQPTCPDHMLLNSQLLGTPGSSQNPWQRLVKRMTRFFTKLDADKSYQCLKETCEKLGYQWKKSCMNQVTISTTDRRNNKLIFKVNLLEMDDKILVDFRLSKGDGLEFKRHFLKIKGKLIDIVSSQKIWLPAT

Serine/threonine-protein kinase PAK 1 (Homo sapiens), sequence (Q13153 whole entry, canonical isoform): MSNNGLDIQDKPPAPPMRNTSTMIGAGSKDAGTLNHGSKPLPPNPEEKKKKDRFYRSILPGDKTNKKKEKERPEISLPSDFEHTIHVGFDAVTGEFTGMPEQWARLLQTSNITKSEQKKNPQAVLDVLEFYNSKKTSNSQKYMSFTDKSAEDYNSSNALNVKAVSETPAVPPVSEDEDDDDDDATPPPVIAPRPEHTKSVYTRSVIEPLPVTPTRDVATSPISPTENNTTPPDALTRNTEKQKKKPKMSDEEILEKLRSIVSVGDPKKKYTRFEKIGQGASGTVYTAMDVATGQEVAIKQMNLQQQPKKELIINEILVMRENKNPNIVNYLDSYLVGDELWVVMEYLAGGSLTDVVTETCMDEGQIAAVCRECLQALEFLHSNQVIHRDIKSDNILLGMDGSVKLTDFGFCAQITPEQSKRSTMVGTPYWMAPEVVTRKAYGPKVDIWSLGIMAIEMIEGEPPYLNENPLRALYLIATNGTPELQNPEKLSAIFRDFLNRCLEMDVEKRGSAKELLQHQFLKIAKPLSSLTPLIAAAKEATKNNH
Misshapen-like kinase 1 (Homo sapiens), sequence (Q8N4C8 whole entry, looked up): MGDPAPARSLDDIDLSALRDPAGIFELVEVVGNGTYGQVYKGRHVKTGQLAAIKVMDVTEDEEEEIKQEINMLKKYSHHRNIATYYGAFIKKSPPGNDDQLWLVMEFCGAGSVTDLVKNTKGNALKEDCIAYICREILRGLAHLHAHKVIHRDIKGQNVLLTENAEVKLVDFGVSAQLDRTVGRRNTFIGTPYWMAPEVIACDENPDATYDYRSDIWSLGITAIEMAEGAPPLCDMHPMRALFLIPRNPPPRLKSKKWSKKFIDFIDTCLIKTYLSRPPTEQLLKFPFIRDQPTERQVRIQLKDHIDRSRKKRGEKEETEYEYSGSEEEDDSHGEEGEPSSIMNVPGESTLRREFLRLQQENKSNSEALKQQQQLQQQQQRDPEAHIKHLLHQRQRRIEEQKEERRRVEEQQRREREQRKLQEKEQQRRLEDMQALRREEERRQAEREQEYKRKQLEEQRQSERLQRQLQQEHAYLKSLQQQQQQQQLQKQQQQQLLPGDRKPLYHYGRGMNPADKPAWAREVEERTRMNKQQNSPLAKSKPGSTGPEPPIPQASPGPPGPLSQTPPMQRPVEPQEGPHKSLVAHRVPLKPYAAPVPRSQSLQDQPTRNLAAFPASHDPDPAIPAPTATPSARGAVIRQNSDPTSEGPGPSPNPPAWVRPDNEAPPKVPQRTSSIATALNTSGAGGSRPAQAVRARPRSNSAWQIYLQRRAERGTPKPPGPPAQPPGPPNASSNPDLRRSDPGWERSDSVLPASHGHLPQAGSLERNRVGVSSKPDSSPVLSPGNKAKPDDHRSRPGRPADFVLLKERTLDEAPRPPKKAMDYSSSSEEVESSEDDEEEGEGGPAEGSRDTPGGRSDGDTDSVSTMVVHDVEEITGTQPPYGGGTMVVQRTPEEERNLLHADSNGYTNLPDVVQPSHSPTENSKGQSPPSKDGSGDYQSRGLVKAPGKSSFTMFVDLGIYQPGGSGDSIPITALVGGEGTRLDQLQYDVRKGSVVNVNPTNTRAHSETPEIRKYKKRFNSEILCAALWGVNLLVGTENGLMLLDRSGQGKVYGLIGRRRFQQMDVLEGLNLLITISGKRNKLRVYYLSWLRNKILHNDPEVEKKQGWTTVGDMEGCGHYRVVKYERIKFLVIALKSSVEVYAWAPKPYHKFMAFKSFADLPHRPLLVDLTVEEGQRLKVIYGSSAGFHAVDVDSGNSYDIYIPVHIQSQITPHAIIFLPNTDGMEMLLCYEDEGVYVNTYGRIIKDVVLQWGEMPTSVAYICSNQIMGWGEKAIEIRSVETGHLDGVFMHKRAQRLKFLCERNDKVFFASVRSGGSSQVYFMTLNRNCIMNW
Casein kinase I isoform alpha (Homo sapiens), sequence (P48729 2-337 limits assumed): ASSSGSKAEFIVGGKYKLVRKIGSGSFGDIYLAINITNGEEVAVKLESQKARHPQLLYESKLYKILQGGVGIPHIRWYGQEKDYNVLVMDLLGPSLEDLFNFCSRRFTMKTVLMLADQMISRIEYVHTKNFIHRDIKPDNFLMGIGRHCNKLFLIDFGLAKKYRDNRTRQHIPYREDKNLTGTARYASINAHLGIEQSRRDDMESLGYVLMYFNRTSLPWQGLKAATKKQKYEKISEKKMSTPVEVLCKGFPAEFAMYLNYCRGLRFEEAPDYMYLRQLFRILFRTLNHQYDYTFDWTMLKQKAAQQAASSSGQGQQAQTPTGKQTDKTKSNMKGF
RAC-alpha serine/threonine-protein kinase (Homo sapiens), sequence (P31749 whole entry): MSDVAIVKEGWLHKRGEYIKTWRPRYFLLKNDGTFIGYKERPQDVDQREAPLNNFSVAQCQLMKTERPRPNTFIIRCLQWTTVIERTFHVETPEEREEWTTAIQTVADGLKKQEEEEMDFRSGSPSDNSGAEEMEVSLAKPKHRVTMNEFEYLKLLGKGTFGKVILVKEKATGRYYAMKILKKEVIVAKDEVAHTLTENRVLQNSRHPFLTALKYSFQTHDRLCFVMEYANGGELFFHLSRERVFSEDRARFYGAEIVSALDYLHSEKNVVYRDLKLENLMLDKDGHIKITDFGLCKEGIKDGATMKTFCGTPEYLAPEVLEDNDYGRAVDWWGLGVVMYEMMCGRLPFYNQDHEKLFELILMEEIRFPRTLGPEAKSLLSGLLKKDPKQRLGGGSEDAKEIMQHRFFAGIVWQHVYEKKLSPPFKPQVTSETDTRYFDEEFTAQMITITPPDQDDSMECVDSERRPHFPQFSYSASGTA
Mitogen-activated protein kinase 14 (Homo sapiens), sequence (Q16539 whole entry): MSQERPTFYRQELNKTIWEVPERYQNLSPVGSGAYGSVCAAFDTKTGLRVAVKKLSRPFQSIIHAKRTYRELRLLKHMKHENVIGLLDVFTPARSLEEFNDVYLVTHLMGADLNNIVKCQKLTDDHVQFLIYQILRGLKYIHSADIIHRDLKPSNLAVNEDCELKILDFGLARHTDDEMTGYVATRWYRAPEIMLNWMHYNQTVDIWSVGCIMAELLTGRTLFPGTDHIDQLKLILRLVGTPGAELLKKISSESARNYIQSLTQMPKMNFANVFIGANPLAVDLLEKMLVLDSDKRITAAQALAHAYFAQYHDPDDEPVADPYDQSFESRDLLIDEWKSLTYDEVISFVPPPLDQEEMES
Interleukin-1 receptor-associated kinase 1 (Homo sapiens), sequence (P51617 whole entry, looked up): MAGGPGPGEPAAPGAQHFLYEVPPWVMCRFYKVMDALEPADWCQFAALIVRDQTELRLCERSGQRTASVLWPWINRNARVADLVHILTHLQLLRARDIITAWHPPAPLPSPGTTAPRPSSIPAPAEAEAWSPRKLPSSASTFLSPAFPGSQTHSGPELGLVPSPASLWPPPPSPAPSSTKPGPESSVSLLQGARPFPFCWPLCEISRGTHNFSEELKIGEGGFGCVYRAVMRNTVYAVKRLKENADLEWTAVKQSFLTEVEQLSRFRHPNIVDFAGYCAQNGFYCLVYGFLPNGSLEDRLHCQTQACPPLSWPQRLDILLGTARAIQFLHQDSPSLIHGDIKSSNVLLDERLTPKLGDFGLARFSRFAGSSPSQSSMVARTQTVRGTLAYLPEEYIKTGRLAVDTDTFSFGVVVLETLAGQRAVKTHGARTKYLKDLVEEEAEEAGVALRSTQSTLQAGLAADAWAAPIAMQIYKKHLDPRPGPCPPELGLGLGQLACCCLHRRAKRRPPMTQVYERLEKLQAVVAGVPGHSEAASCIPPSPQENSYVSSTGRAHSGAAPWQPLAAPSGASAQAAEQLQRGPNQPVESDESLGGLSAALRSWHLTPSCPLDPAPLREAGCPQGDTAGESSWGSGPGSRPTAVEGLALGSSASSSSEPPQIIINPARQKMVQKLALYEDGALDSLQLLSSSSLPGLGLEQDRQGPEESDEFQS

Structure (SMILES)	Kinact [1]	CC50 at 24 h [2]	inhibition [3]	inhibition [4]	Ratio [5]	inhibition [6]	inhibition [7]	inhibition [8]	inhibition [9]	inhibition [10]	inhibition [11]	inhibition [12]
Nc1ncnc2c1ccn2C1CCN(C(=O)c2ccc(S(=O)(=O)F)cc2)CC1	0.282 min⁻¹	> 100 µM	0%	0%	1050	7%	6%	10%	5%	39%	20%	18%
Cc1nc(N)c2ccn(C3CCN(C(=O)c4ccc(S(=O)(=O)F)cc4)CC3)c2n1	0.129 min⁻¹	> 100 µM	0%	0%	234	27%	2%	0%	17%	47%	24%	97%
